Results on 2 molecules are retold here after patent US20030040486A1 (priority 2001, published 2003).

The structures appear in SMILES notation.

Assay [1] deals with male Sprague-Dawley rats. The experiment in a line: Rat hindpaw withdrawal latency (HWL) to mechanical stimulation, Randall Selitto Test. The settings on record: for HWL increase using mechanical stimulation: drug alone, intrathecal, FIGS. 2C and 2D; for % Changes of HWL to Mechanical Stimulation: intrathecal every 12 hrs: morphine 8 μg, nociceptin 10 nmol, or rotated every two days. Type of assay: in vivo.

The subject of assay [2] is male Sprague-Dawley rats. Put plainly: Development of tolerance in the rat HWL study (thermal and mechanical stimulation). The class given is in vivo. The conditions noted are these: for time to complete tolerance: intrathecal every 12 hrs, both hindpaws, thermal and mechanical HWL.
Assay [3] concerns male Sprague-Dawley rats. The experiment in a line: Rat hindpaw withdrawal latency (HWL) to thermal stimulation, hot-plate test. The conditions noted are these: for HWL increase using thermal stimulation: drug alone, intrathecal, FIGS. 2A and 2B; for % Changes of HWL to Thermal Stimulation: intrathecal every 12 hrs: morphine 8 μg, nociceptin 10 nmol, or rotated every two days. The class given is in vivo.

The conditions of assay [4]: intrathecal administration; Jhamandas et al. 1998; cited from earlier work.
Assay [5] has as its system μ-opioid receptors. The conditions noted are these: Hao et al. 1997; cited from earlier work.

Take `CN1CC[C@]23c4c5ccc(O)c4O[C@H]2[C@@H](O)C=C[C@H]3[C@H]1C5` [Morphine, morphine]: the “HWL increase using mechanical stimulation” value in assay [1] (day 1) is approximately 55%. In addition, the “time to complete tolerance” value in assay [2] was 6 days. Further, the “HWL increase using thermal stimulation” value in assay [3] (day 1) is “approximately 67%”.

In the case of `CC(C)C[C@H](NC(=O)[C@H](CCCCN)NC(=O)[C@H](CCCN=C(N)N)NC(=O)[C@H](C)NC(=O)[C@H](CO)NC(=O)[C@H](CCCCN)NC(=O)[C@H](CCCN=C(N)N)NC(=O)[C@H](C)NC(=O)CNC(=O)[C@@H](NC(=O)[C@H](Cc1ccccc1)NC(=O)CNC(=O)CNC(=O)[C@@H](N)Cc1ccccc1)[C@@H](C)O)C(=O)N[C@@H](C)C(=O)N[C@@H](CC(N)=O)C(=O)N[C@@H](CCC(N)=O)C(=O)O` [Nociceptin, nociceptin], the “HWL increase using mechanical stimulation” value in assay [1] (day 1) was 60-70%. The “% Changes of HWL to Mechanical Stimulation” value turned out to be 69.90 ± 4.11% in assay [1] (day 1, left hindpaw); 61.26 ± 3.85% in assay [1] (day 1, right hindpaw); 31.28 ± 5.03% in assay [1] (day 2, left hindpaw); 30.79 ± 6.58% in assay [1] (day 2, right hindpaw); 10.59 ± 0.93% in assay [1] (day 3, left hindpaw); 10.08 ± 1.05% in assay [1] (day 3, right hindpaw). The “% Changes of HWL to Mechanical Stimulation” value in assay [1] (day 4, left hindpaw) is listed as −0.62 ± 1.45%; in assay [1] (day 4, right hindpaw) it was −0.76 ± 2.32%. Moreover, the “duration of the antinociceptive response evoked by intrathecal deltorphin” value in assay [4] is reported as “increase the duration”. The “binding to μ-opioid receptors” value in assay [5] was “does not bind”. Also, in assay [2] (by day 2, nociceptin alone group), the tolerance developed is reported as 50%. For the same molecule, the “time to complete tolerance” value in assay [2] amounted to 4 days. The “HWL increase using thermal stimulation” value in assay [3] (day 1) is “approximately 90%”. For the same molecule, the “% Changes of HWL to Thermal Stimulation” value is recorded as 93.49 ± 3.77% in assay [3] (day 1, left hindpaw); 90.42 ± 2.65% in assay [3] (day 1, right hindpaw); 39.91 ± 3.66% in assay [3] (day 2, left hindpaw); 43.02 ± 2.12% in assay [3] (day 2, right hindpaw); 9.46 ± 2.31% in assay [3] (day 3, left hindpaw); 12.01 ± 1.48% in assay [3] (day 3, right hindpaw). The “% Changes of HWL to Thermal Stimulation” value was −2.18 ± 2.07% in assay [3] (day 4, left hindpaw) and −3.67 ± 1.61% in assay [3] (day 4, right hindpaw).
